From the NIST ThermoML archive (doi:10.1016/j.jct.2016.10.034)
± gives the expanded uncertainty stated by the source.

Tests used:
[1] = for viscosity / mass density: 100 kPa, Liquid; for viscosity: Falling or rolling sphere viscometry; for mass density: Vibrating tube method; for Glass transition temperature: DSC
[2] = xn = mol fraction of the nth substance listed; conditions: 100 kPa, Liquid, x2 = 0; for viscosity: Falling or rolling sphere viscometry; for mass density: Vibrating tube method

| Structure (SMILES) | mass density ([1]; 298.15 K) | mass density ([1]; 303.15 K) | mass density ([1]; 308.15 K) | mass density ([1]; 313.15 K) | viscosity ([1]; 318.15 K) | mass density ([1]; 318.15 K) | viscosity ([1]; 323.15 K) | mass density ([1]; 323.15 K) | viscosity ([1]; 328.15 K) | mass density ([1]; 328.15 K) | viscosity ([1]; 333.15 K) | mass density ([1]; 333.15 K) | viscosity ([1]; 338.15 K) | mass density ([1]; 338.15 K) | viscosity ([1]; 343.15 K) | mass density ([1]; 343.15 K) | viscosity ([1]; 348.15 K) | mass density ([1]; 348.15 K) | Glass transition temperature [1] | viscosity ([2]; 298.15 K) | other results |
| --- | --- | --- | --- | --- | --- | --- | --- | --- | --- | --- | --- | --- | --- | --- | --- | --- | --- | --- | --- | --- | --- |
| CC(=O)[O-].CC[N+]1(C)CCCC1 [1-ethyl-1-methylpyrrolidinium acetate] | 1064.5 ± 2.2 kg/m3 | 1061.8 ± 2.2 kg/m3 | 1058.7 ± 2.2 kg/m3 | 1055.9 ± 2.2 kg/m3 | 93.4 ± 9.7 mPa·s | 1053.1 ± 2.2 kg/m3 | 74 ± 7.6 mPa·s | 1050.3 ± 2.2 kg/m3 | 60 ± 6.1 mPa·s | 1047.4 ± 2.2 kg/m3 | 49.2 ± 5 mPa·s | 1044.4 ± 2.1 kg/m3 | 39.4 ± 4 mPa·s | 1041.8 ± 2.1 kg/m3 | 32.4 ± 3.3 mPa·s | 1038.8 ± 2.1 kg/m3 | 26 ± 2.6 mPa·s | 1035.9 ± 2.1 kg/m3 | -88 ± 20 °C |  | viscosity ([1]; 298.15 K): 240 ± 27 mPa·s; viscosity ([1]; 303.15 K): 184 ± 20 mPa·s; viscosity ([1]; 308.15 K): 145 ± 15 mPa·s; viscosity ([1]; 313.15 K): 117 ± 12 mPa·s |
| CC[N+]1(C)CCCC1.O=C([O-])CO [1-ethyl-1-methylpyrrolidinium glycolate] | 1134 ± 2.5 kg/m3 | 1130.7 ± 2.5 kg/m3 | 1127.3 ± 2.4 kg/m3 | 1124 ± 2.4 kg/m3 | 116 ± 12 mPa·s | 1120.8 ± 2.4 kg/m3 | 92.2 ± 9.5 mPa·s | 1117.6 ± 2.4 kg/m3 | 76.9 ± 7.9 mPa·s | 1114.4 ± 2.4 kg/m3 | 60.6 ± 6.2 mPa·s | 1111.2 ± 2.4 kg/m3 | 49.6 ± 5 mPa·s | 1108.1 ± 2.4 kg/m3 | 41.2 ± 4.2 mPa·s | 1105 ± 2.4 kg/m3 | 34.2 ± 3.5 mPa·s | 1101.9 ± 2.3 kg/m3 | -80 ± 20 °C |  | viscosity ([1]; 298.15 K): 345 ± 41 mPa·s; viscosity ([1]; 303.15 K): 254 ± 29 mPa·s; viscosity ([1]; 308.15 K): 192 ± 21 mPa·s; viscosity ([1]; 313.15 K): 151 ± 16 mPa·s |
| CC[N+]1(C)CCOCC1.O=C([O-])CO [N-ethyl-N-methylmorpholinium glycolate] | 1232.6 ± 2.9 kg/m3 | 1229.5 ± 2.9 kg/m3 | 1226.3 ± 2.9 kg/m3 | 1223 ± 2.9 kg/m3 | 2500 ± 390 mPa·s | 1219.8 ± 2.9 kg/m3 | 1799 ± 270 mPa·s | 1216.5 ± 2.9 kg/m3 | 1155 ± 160 mPa·s | 1213.3 ± 2.8 kg/m3 | 854 ± 110 mPa·s | 1210.1 ± 2.8 kg/m3 | 666 ± 86 mPa·s | 1207.2 ± 2.8 kg/m3 | 488 ± 60 mPa·s | 1204.1 ± 2.8 kg/m3 | 363 ± 43 mPa·s | 1201.1 ± 2.8 kg/m3 | -59 ± 20 °C |  |  |
| O [water] + CC(=O)[O-].CC[N+]1(C)CCCC1 |  |  |  |  |  |  |  |  |  |  |  |  |  |  |  |  |  |  |  | 0.89 ± 0.089 mPa·s | viscosity ([2]; 303.15 K): 0.797 ± 0.08 mPa·s; viscosity ([2]; 308.15 K): 0.719 ± 0.072 mPa·s; viscosity ([2]; 313.15 K): 0.653 ± 0.066 mPa·s; viscosity ([2]; 318.15 K): 0.596 ± 0.06 mPa·s; viscosity ([2]; 323.15 K): 0.547 ± 0.055 mPa·s; mass density ([2]; 323.15 K): 987.9 ± 1 kg/m3; viscosity ([2]; 328.15 K): 0.504 ± 0.051 mPa·s; mass density ([2]; 328.15 K): 985.7 ± 1 kg/m3; viscosity ([2]; 333.15 K): 0.466 ± 0.047 mPa·s; mass density ([2]; 333.15 K): 983.2 ± 1 kg/m3; viscosity ([2]; 338.15 K): 0.433 ± 0.043 mPa·s; mass density ([2]; 338.15 K): 980.3 ± 1 kg/m3; viscosity ([2]; 343.15 K): 0.404 ± 0.041 mPa·s; mass density ([2]; 343.15 K): 978.1 ± 1 kg/m3; viscosity ([2]; 348.15 K): 0.378 ± 0.038 mPa·s; mass density ([2]; 348.15 K): 974.8 ± 1 kg/m3 |
| O [water] + CC[N+]1(C)CCCC1.O=C([O-])CO |  |  |  |  |  |  |  |  |  |  |  |  |  |  |  |  |  |  |  | 0.89 ± 0.089 mPa·s | viscosity ([2]; 303.15 K): 0.797 ± 0.08 mPa·s; viscosity ([2]; 308.15 K): 0.719 ± 0.072 mPa·s; viscosity ([2]; 313.15 K): 0.653 ± 0.066 mPa·s; viscosity ([2]; 318.15 K): 0.596 ± 0.06 mPa·s; viscosity ([2]; 323.15 K): 0.547 ± 0.055 mPa·s; mass density ([2]; 323.15 K): 987.9 ± 1 kg/m3; viscosity ([2]; 328.15 K): 0.504 ± 0.051 mPa·s; mass density ([2]; 328.15 K): 985.7 ± 1 kg/m3; viscosity ([2]; 333.15 K): 0.466 ± 0.047 mPa·s; mass density ([2]; 333.15 K): 983.2 ± 1 kg/m3; viscosity ([2]; 338.15 K): 0.433 ± 0.043 mPa·s; mass density ([2]; 338.15 K): 980.3 ± 1 kg/m3; viscosity ([2]; 343.15 K): 0.404 ± 0.041 mPa·s; mass density ([2]; 343.15 K): 978.1 ± 1 kg/m3; viscosity ([2]; 348.15 K): 0.378 ± 0.038 mPa·s; mass density ([2]; 348.15 K): 974.8 ± 1 kg/m3 |
| O [water] + CC[N+]1(C)CCOCC1.O=C([O-])CO |  |  |  |  |  |  |  |  |  |  |  |  |  |  |  |  |  |  |  | 0.89 ± 0.089 mPa·s | viscosity ([2]; 303.15 K): 0.797 ± 0.08 mPa·s; viscosity ([2]; 308.15 K): 0.719 ± 0.072 mPa·s; viscosity ([2]; 313.15 K): 0.653 ± 0.066 mPa·s; viscosity ([2]; 318.15 K): 0.596 ± 0.06 mPa·s; viscosity ([2]; 323.15 K): 0.547 ± 0.055 mPa·s; mass density ([2]; 323.15 K): 987.9 ± 1 kg/m3; viscosity ([2]; 328.15 K): 0.504 ± 0.051 mPa·s; mass density ([2]; 328.15 K): 985.7 ± 1 kg/m3; viscosity ([2]; 333.15 K): 0.466 ± 0.047 mPa·s; mass density ([2]; 333.15 K): 983.2 ± 1 kg/m3; viscosity ([2]; 338.15 K): 0.433 ± 0.043 mPa·s; mass density ([2]; 338.15 K): 980.3 ± 1 kg/m3; viscosity ([2]; 343.15 K): 0.404 ± 0.041 mPa·s; mass density ([2]; 343.15 K): 978.1 ± 1 kg/m3; viscosity ([2]; 348.15 K): 0.378 ± 0.038 mPa·s; mass density ([2]; 348.15 K): 974.8 ± 1 kg/m3 |
